In ChEMBL document CHEMBL6092139, “AChE inhibitory activity of N-substituted natural galanthamine derivatives” (Bioorg Med Chem Lett, 2024):
pIC50: −log10 of the molar value.

Biological target: Acetylcholinesterase (Homo sapiens, UniProt P22303)
Experiment: Inhibition of AChE (unknown origin) using acetylthiocholine iodide as substrate preincubated for 30 mins followed by substrate addition and measured after 3 mins by DTNB reagent based Ellman's method

Chain of Acetylcholinesterase (P22303 whole entry): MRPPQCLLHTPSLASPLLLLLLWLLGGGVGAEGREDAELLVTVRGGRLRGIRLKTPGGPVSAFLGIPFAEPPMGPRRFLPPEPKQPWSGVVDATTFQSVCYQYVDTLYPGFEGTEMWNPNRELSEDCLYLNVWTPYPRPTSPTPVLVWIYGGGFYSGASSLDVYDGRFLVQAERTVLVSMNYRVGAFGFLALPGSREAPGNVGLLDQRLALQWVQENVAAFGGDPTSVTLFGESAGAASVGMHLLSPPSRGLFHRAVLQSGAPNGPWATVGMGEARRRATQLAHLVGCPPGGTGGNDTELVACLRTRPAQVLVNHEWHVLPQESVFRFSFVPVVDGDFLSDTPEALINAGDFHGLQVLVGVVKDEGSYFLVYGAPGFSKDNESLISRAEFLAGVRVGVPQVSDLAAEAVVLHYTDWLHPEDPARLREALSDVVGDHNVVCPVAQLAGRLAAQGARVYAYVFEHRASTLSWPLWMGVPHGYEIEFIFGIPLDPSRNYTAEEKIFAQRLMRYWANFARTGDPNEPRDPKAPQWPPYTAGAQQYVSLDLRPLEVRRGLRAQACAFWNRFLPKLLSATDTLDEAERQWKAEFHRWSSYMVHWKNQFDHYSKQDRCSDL

Structure (SMILES)	pIC50
COc1ccc2c3c1O[C@H]1C[C@@H](O)C=C[C@@]31CCN(C=O)C2	4.01
COc1ccc2c3c1O[C@H]1C[C@@H](O)C=C[C@@]31CCN(C(C)=O)C2	5.01
C=CCN1CC[C@@]23C=C[C@H](O)C[C@@H]2Oc2c(OC)ccc(c23)C1 [N-ALLYLNORGALANTHAMINE]	6.74
